Laboratory results as given in patent US20200038399A1, “FORMULATIONS, METHODS, KIT, AND DOSAGE FORMS FOR TREATING BACTERIAL INFECTION” (Motif BioSciences Inc., priority 2016, published 2020).

Columns and labels:
[1] = tested on: S. pneumoniae 1/1; test: MIC determination; assay type: cell-based, Streptococcus pneumoniae; settings: Streptococcus pneumoniae; S. pneumoniae 1/1; 18 hours at 37° C., 5% CO2; read-out: Minimum inhibitory concentrations (MIC)
Protocol: (§1) Minimum inhibitory concentration (MIC) determination.
(§2) In order to choose the appropriate concentrations to be tested in the checkerboard experiments, minimum inhibitory concentrations (MICs) were determined first. […] Table 6) in microtiter plates. Stock solutions (10 mg/ml) of reference antibiotics were prepared in DMSO (except for tobramycin, gentamicin, lomefloxacin, tetracycline) and stored at 4° C. The bacteria were grown in Mueller-Hinton Broth (BBL Mueller-Hinton Broth II, cation adjusted). S. pneumoniae was grown in Mueller-Hinton Broth supplemented with 5% (v/v) lysed sheep blood. For the growth of H. influenzae HTM (Haemophilus test medium) was used containing Mueller-Hinton broth, yeast extract ([…], Difco) and supplemented with NAD and hematin (HTM Supplement, Oxoid SR0158E). M. catarrhalis was grown in Brain Heart Infusion medium (Oxoid). The bacteria were incubated for 18 hours at 37° C. in ambient air except for S. pneumoniae, H. influenzae and M. catarrhalis, which were incubated in the presence of 5% CO2. The MIC was determined as the lowest concentration of an individual drug that lead to no visible growth.

[2] = tested on: S. aureus 101; test: MIC determination; assay type: cell-based, Staphylococcus aureus; settings: Staphylococcus aureus, 101, 18 h; read-out: Minimum inhibitory concentrations (MIC)
Protocol: as §1, §2

[3] = tested on: Moraxella catarrhalis RA 21; test: checkerboard synergy assay with iclaprim; assay type: cell-based; settings: antibiotic in combination with iclaprim; M. catarrhalis RA 21
Protocol: (§3) The synergistic potential of iclaprim against Gram-positive and Gram-negative bacteria was determined using the checkerboard assay as described in Eliopoulos GM and Moellering, Jr. RC (1991), Antimicrobial combinations, pp. 432-492, in V. Lorian (ed.), Antibiotics in laboratory medicine, 3rd Ed., The Williams & Wilkins Co., Baltimore, the entire disclosure of which is herein incorporated by reference, allowing multiple test concentrations of iclaprim to be assayed in the presence of various concentrations of the other antibiotic in microtiter plates. The same growth media and conditions were used as described in 3.2 below.
(§4) Two different dilutions were used for iclaprim depending on the MIC determined for the bacterium. […] Iclaprim and the other antibiotic being tested were also dispensed alone in the last row and in the last column, respectively, as controls.
(§5) The Fractional Inhibitory Concentrations (FIC) for each added agent were calculated and used to determine the sum of FIC (ΣFIC) indicative of the synergistic potential of a given combination as described in Veyssier P. (1999), Inhibiteurs de la dihydrofolate reductase, nitrohétérocycles (furanes) et 8-hydroxyquinoleines, pp. 995-1027, in A. Bryskier (ed.), Antibiotiques agents antibatériens et antifongiques, 1st Ed., Ellipses Edition Marketing SA, Paris, the entire disclosure of which is herein incorporated by reference. Synergy was defined whereby the ΣFIC was <0.5, indifference (no synergy nor antagonism) whereby ΣFIC was ≥0.5 but ≤4, and antagonism whereby ΣFIC was >4. Additivity as a special form of indifference was defined whereby the ΣFIC was ≥0.5 but <1, for example as described in Stevens, D L et al. (1998), In vitro antimicrobial effects of various combinations of penicillin and clindamycin against four strains of Streptococcus pyogenes, J. Antimicrob. Chemother. 42: 1266-1268, the entire disclosure of which is herein incorporated by reference.

[4] = tested on: Klebsiella pneumoniae ATCC 33495; test: checkerboard synergy assay with iclaprim; assay type: cell-based; settings: antibiotic in combination with iclaprim; K. pneumoniae 33495
Protocol: as §3, §4, §5

[5] = tested on: Haemophilus influenzae ATCC 49766; test: checkerboard synergy assay with iclaprim; assay type: cell-based; settings: antibiotic in combination with iclaprim; H. influenzae 49766
Protocol: as §3, §4, §5

[6] = tested on: Staphylococcus aureus ATCC 25923; test: checkerboard synergy assay with iclaprim; assay type: cell-based; settings: antibiotic in combination with iclaprim; S. aureus 25923
Protocol: as §3, §4, §5

[7] = tested on: Streptococcus pneumoniae ATCC 49619; test: checkerboard synergy assay with iclaprim; assay type: cell-based; settings: antibiotic in combination with iclaprim; S. pneumoniae 49619
Protocol: as §3, §4, §5

[8] = tested on: S. aureus 101; test: checkerboard synergy assay with iclaprim; assay type: cell-based, Staphylococcus aureus; settings: antibiotic in combination with iclaprim
Protocol: as §3, §4, §5

[9] = tested on: S. pneumoniae 1/1; test: checkerboard synergy assay with iclaprim; assay type: cell-based, Streptococcus pneumoniae; settings: antibiotic in combination with iclaprim
Protocol: as §3, §4, §5

[10] = tested on: Moraxella catarrhalis RA 21; test: MIC determination; assay type: cell-based; settings: Moraxella catarrhalis, RA21; M. catarrhalis RA 21; 18 hours at 37° C., 5% CO2; read-out: Minimum inhibitory concentrations (MIC)
Protocol: as §1, §2

[11] = tested on: Klebsiella pneumoniae ATCC 33495; test: MIC determination; assay type: cell-based; settings: Klebsiella pneumoniae, ATCC33495; K. pneumonia 33495; 18 hours at 37° C.; read-out: Minimum inhibitory concentrations (MIC)
Protocol: as §1, §2

[12] = tested on: Haemophilus influenzae ATCC 49766; test: MIC determination; assay type: cell-based; settings: Haemophilus influenzae, ATCC49766; H. Influenza 49766; 18 hours at 37° C., 5% CO2; read-out: Minimum inhibitory concentrations (MIC)
Protocol: as §1, §2

[13] = tested on: Staphylococcus aureus ATCC 25923; test: MIC determination; assay type: cell-based; settings: Staphylococcus aureus, ATCC25923; S. aureus 25923; 18 hours at 37° C.; read-out: Minimum inhibitory concentrations (MIC)
Protocol: as §1, §2

[14] = tested on: Streptococcus pneumoniae ATCC 49619; test: MIC determination; assay type: cell-based; settings: Streptococcus pneumoniae, ATCC49619; S. pneumoniae 49619; 18 hours at 37° C., 5% CO2; read-out: Minimum inhibitory concentrations (MIC)
Protocol: as §1, §2

| Structure (SMILES) | MIC [1] [µg/mL] | MIC [2] [µg/mL] | Con (Conclusion) [3] | Σ FIC [3] | Con (Conclusion) [4] | Σ FIC [4] | Con (Conclusion) [5] | Σ FIC [5] | Σ FIC [6] | Σ FIC [7] | Σ FIC [8] | Σ FIC [9] | MIC [10] [µg/mL] | MIC [11] [µg/mL] | MIC [12] [µg/mL] | MIC [13] [µg/mL] | MIC [14] [µg/mL] |
| --- | --- | --- | --- | --- | --- | --- | --- | --- | --- | --- | --- | --- | --- | --- | --- | --- | --- |
| Cc1onc(-c2ccccc2Cl)c1C(=O)N[C@@H]1C(=O)N2[C@@H]1SC(C)(C)[C@@H]2C(=O)O [Cloxacillin] | 64 | 2 | Ad (Additivity (Ad)) | 0.53-1.00 | Ind (Indifference (Ind)) | 1.01-2.50 | Ind (Indifference (Ind)) | 1.13-1.50 | 0.99-1.25 | 1.00-1.25 | 1.00-1.25 | 1.00-1.25 | 64 | > 128 | 16 | 0.25 | 8 |
| C[C@H]1c2cccc(O)c2C(=O)C2=C(O)[C@]3(O)C(=O)C(C(N)=O)=C(O)[C@@H](N(C)C)[C@@H]3[C@@H](O)[C@@H]21 [Doxycycline] | 2 | 16 | Ind (Indifference (Ind)) | 1.02-1.50 | Ind (Indifference (Ind)) | 1.01-1.50 | Ind (Indifference (Ind)) | 1.00-1.00 | 1.02-1.50 | 1.02-1.51 | 1.06-1.50 | 1.25-1.50 | 0.5 | > 128 | 0.5 | 0.5 | 0.5 |
| CC[C@H]1OC(=O)[C@H](C)[C@@H](O[C@H]2C[C@@](C)(OC)[C@@H](O)[C@H](C)O2)[C@H](C)[C@@H](O[C@@H]2O[C@H](C)C[C@H](N(C)C)[C@H]2O)[C@](C)(O)C[C@@H](C)C(=O)[C@H](C)[C@@H](O)[C@]1(C)O [Erythromycin] | 0.125 | > 128 | Ind (Indifference (Ind)) | 1.06-1.50 | Ad (Additivity (Ad)) | – | Ad (Additivity (Ad)) | 0.75-1.00 | 1.13-1.50 | 1.06-1.50 | 1.01-1.50 | 1.06-1.50 | 0.125 | 128 | 8 | 0.5 | 0.125 |
| C[C@@H]1O[C@@H]1P(=O)(O)O [Fosfomycin] | 32 | 64 | Ind (Indifference (Ind)) | 1.02-1.50 | Ind (Indifference (Ind)) | 1.01-1.50 | Ad (Additivity (Ad)) | 0.74-1.12 | 1.13-1.50 | 1.06-1.50 | 1.03-1.50 | 1.00-1.06 | 128 | > 128 | 0.062 | 8 | 32 |
| CC(=O)O[C@H]1C[C@@]2(C)[C@@H](C[C@@H](O)[C@H]3[C@@]4(C)CC[C@@H](O)[C@@H](C)[C@@H]4CC[C@@]32C)/C1=C(\CCC=C(C)C)C(=O)O [Fusidic acid] | 8 | 0.125 | Ind (Indifference (Ind)) | 1.00-1.00 | Ind (Indifference (Ind)) | 1.00-1.25 | Ind (Indifference (Ind)) | 1.06-1.50 | 2.03-2.50 | 1.13-1.50 | 1.06-1.50 | 1.06-1.50 | < 0.008 | > 128 | 1 | 0.25 | 4 |
| NC[C@H]1O[C@H](O[C@H]2[C@H](O)[C@@H](O[C@H]3O[C@H](CO)[C@@H](O)[C@H](N)[C@H]3O)[C@H](N)C[C@@H]2N)[C@H](O)[C@@H](O)[C@@H]1O [Kanamycin] | 128 | > 128 | Ind (Indifference (Ind)) | 1.00-1.25 | Ad (Additivity (Ad)) | 0.63-0.75 | Ind (Indifference (Ind)) | 1.02-1.13 | 1.06-1.50 | 1.00-1.25 | 1.01-1.50 | 1.02-1.50 | 4 | 4 | 2 | 2 | 32 |
